Laboratory results taken from patent US8686144B2, “Condensed pyridine derivatives useful as potent inhibitors of the protein kinase CK2” (Commissariat a l'Energie Atomique et aux Energie Alternative, priority 2009, dated 2014).
pIC50: −log10 of the molar value.

How the values were obtained:
U373 cells [1] = assay: cell cycle distribution analysis (propidium iodide), U373; format: cell-based, human; details: 5 μM, 24 hours
Protocol: (§1) Cells previously treated with Compound 1 and Compound 2 in example 4 are then submitted to a cell cycle analysis following propidium iodide incorportation.
(§2) Cell cycle distribution analysis: cells were plated in 6-well plates. The following day, cells were treated with 5 μM compounds or an equivalent amount of DMSO. After 24 hours, cells were harvested, fixed with ethanol 70% for 30 minutes, and labeled with propidium iodide 10 μg/mL for 30 min. DNA content was analysed with FACScalibur and Cell Quest software.

HeLa cells [2] = assay: cell cycle distribution analysis (propidium iodide), HeLa; format: cell-based, human; details: 5 μM, 24 hours
Protocol: as §1, §2

CK2 = assay: cellular CK2 activity assay (YFP-based CK2 activity reporter in HeLa cells); format: cell-based, human; details: 24 hours incubation, FIGS. 2A and 2B
Protocol: Cellular CK2 activity assay: The plasmid pEYFPc1 expressing a chimeric YFP-based CK2 activity reporter was designed by adding six CK2 consensus phosphorylation sites at the C terminus of the YFP protein (pEYFPc1-SβS). pEYFPc1-SβS was obtained from pEYFPc1-CK2β after two subsequent rounds of mutations with the Quickchange-Site Directed mutagenesis kit (Stratagene) using for mutagenesis 1:
Then, the cells were collected and the washed pellets were solubilized for […] in ice with 100μΛ of lysis buffer (Tris 50 mM pH=7.4, 0.15 M NaCl, EDTA 2 mM, Triton X100 1/100, phosphatase inhibitor cocktail 2 (Sigma) 1/100, and leupeptine, aprotinine, AEBSF according to the manufacturer recommendations).

c-Kit = target: T1, c-Kit (Homo sapiens, UniProt P10721); assay: c-kit kinase activity assay (Millipore 14-559); format: biochemical; details: 10 μM compound
T1 construct: purchased Millipore 14-559
T1 sequence (P10721 26-976): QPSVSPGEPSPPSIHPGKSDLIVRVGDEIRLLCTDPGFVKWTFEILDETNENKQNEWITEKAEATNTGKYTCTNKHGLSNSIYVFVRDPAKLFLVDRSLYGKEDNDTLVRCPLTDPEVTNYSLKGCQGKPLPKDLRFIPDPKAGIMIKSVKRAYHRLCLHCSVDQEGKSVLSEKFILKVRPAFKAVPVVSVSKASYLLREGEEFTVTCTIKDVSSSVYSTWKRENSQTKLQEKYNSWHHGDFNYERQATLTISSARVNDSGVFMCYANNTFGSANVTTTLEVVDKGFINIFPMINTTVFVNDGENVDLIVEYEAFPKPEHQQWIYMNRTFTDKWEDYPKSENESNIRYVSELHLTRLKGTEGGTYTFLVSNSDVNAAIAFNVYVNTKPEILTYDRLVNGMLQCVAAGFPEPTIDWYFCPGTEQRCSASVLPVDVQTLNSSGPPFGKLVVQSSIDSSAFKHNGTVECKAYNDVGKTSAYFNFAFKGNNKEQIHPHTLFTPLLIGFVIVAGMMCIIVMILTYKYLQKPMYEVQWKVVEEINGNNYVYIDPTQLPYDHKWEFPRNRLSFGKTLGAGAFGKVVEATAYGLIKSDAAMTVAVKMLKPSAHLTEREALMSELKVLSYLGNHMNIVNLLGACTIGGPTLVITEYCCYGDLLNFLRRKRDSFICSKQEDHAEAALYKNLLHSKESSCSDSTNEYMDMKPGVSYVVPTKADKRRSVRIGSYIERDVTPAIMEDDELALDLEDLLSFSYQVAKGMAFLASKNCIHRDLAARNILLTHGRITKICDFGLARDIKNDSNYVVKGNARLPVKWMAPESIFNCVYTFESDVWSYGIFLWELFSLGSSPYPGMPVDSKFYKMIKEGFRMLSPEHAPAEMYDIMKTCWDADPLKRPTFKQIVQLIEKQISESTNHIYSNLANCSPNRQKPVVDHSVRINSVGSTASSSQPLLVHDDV
Protocol: (§3) 1. Materials and Methods • Effect of compounds of formula (I) on CK2 activity is measured according to Prudent et al. (Prudent, R. et al. (2008) Mol Cell Biochem 316(1-2): 71-85): compounds were tested in a radioactive assay performed in a final volume of 18 μL containing 3 μL of compounds at the indicated concentrations, 3 μL, of CK2α (36 ng) and a mixture containing 100 μM of peptide substrate ([…], SEQ ID No: 1), 10 mM MgCl2, and 100 μM [γ-^32P]-ATP. Assays were performed at room temperature for 5 min before termination by the addition of 60 μL of 4% TCA. ^32P incorporation into the peptide substrate was determined as previously described in Filhol et al. (Biochemistry 29: 9928-36, 1990). • Effect of compounds of formula (I) on c-kit activity is measured according to the manufacturer's recommendations (Millipore, reference 14-559): in a final reaction volume of 25 μL, c-Kit (5-10 mU) is incubated with 8 mM MOPS pH 7.0, 0.2 mM EDTA, 10 mM MnCl2, 25 μM ATP, 0.1 mg/mL poly(Glu, Tyr) 4:1, 10 mM MgAcetate and [γ-33P-ATP] […] Following an incubation of 30 minutes at 37° C., reaction mixture is resolved on an agarose gel (1% agarose) and DNA topoisomers are quantified by densitometric analysis. • Effect of compounds of formula (I) on DNA intercalation. DNA intercalation was performed using FID (Fluorescence Intercalator Displacement). […] In this assay, compound auto-fluorescence was negative.

HeLa cells [3] = assay: inhibition of HeLa cell proliferation (CellTiter-Glo viability); format: cell-based, human; details: 48 hours treatment, FIG. 3
Protocol: (§4) 1. […] The following day, the culture medium was replaced with fresh medium (Dulbecco's medium, Invitrogen Life Technologies, Inc., supplemented with 10% (v/v) fetal calf serum (FBS, BioWest)), containing increasing concentration of inhibitors or an equivalent amount of DMSO as control. Two days later, cell viability was measured with the CellTiter-Glo® Luminescent Cell Viability Assay (Promega) according to the manufacturer recommendations. • The inhibition of U373 cells proliferation is assessed with the same protocol that HeLa cells: one day after plating, U373 cells are treated with 5 μM of Compound 1, Compound 2 or DMSO. Results are given relative to the luminescence recorded for DMSO.

[4] = test system: double stranded oligonucleotide CAATCGGATCGAATTCGATCCGATTG; assay: DNA intercalation by FID (Fluorescence Intercalator Displacement, thiazole orange); format: binding; details: 10 μM compound
Protocol: as §3

U373 cells [5] = assay: inhibition of U373 cell proliferation (CellTiter-Glo viability); format: cell-based, human; details: 5 μM, 48 hours treatment, FIG. 4
Protocol: as §4

CK2α = CK2α (Homo sapiens, UniProt P68400); assay: CK2 radioactive kinase assay (32P incorporation into peptide substrate); format: biochemical; details: 100 μM ATP; for % remaining CK2 activity (10 μM): 10 μM compound
CK2α, sequence (P68400 whole entry): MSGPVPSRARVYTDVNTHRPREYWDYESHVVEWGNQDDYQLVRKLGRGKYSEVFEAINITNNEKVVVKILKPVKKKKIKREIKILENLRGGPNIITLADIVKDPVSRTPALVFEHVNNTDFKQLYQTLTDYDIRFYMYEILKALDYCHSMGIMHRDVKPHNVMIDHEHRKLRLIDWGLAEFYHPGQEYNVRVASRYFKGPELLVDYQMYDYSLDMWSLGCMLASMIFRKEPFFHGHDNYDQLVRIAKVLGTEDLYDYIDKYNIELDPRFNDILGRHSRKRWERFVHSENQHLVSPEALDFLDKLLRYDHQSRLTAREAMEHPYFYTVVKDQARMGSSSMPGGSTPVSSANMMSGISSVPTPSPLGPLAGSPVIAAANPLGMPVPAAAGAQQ
Protocol: 1. Materials and Methods • Effect of compounds of formula (I) on CK2 activity is measured according to Prudent et al. (Prudent, R. et al. (2008) Mol Cell Biochem 316(1-2): 71-85): compounds were tested in a radioactive assay performed in a final volume of 18 μL containing 3 μL of compounds at the indicated concentrations, 3 μL, of CK2α (36 ng) and a mixture containing 100 μM of peptide substrate ([…], SEQ ID No: 1), 10 mM MgCl2, and 100 μM [γ-^32P]-ATP. Assays were performed at room temperature for 5 min before termination by the addition of 60 μL of 4% TCA. ^32P incorporation into the peptide substrate was determined as previously described in Filhol et al. (Biochemistry 29: 9928-36, 1990). • Effect of compounds of formula (I) on c-kit activity is measured according to the manufacturer's recommendations (Millipore, reference 14-559): in a final reaction volume of 25 μL, c-Kit (5-10 mU) is incubated with 8 mM MOPS pH 7.0, 0.2 mM EDTA, 10 mM MnCl2, 25 μM ATP, 0.1 mg/mL poly(Glu, Tyr) 4:1, 10 mM MgAcetate and [γ-33P-ATP] (specific activity approx. 500 cpm/pmol, concentration as required). The reaction is initiated by the addition of the MgATP mix. After incubation for 40 minutes at room temperature, the reaction is stopped by the addition of 5 μL of a 3% phosphoric acid solution. 10 μL of the reaction is then spotted onto a Filtermat A and washed three times for 5 minutes in 75 mM phosphoric acid and once in methanol prior to drying and scintillation counting. • Effect of compounds of formula (I) on topoisomerase II activity is measured according to the manufacturer's recommendations (Vaxron, TA-001): in a final reaction volume of 10 μL, 1U topoisomerase IIα is incubated with 0.1M Tris-HCl, pH 8.0, 2 mM DTT, 20 mM MgCl2, 4 mM ATP, 0.2 M NaCl, 2 μg BSA, 500 ng Kinetoplast DNA and compounds to be assayed (from 10 mM stock solution in DMSO, final concentration of DMSO<1%). The reaction is initiated by the addition of topoisomerase IIα. After incubation for 15 min at 37° C., reaction is stopped by addition of 1 μL of stop solution (3% SDS, 1.5 mg·mL^−1 Proteinase K). Following an incubation of 30 minutes at 37° C., reaction mixture is resolved on an agarose gel (1% agarose) and DNA topoisomers are quantified by densitometric analysis. • Effect of compounds of formula (I) on DNA intercalation. DNA intercalation was performed using FID (Fluorescence Intercalator Displacement). This assay based on the loss of fluorescence of a DNA-bound intercalator (thiazole orange) upon displacement by a DNA-binding molecule. Briefly, the double stranded oligonucleotide […] […] After 20 minutes incubation, fluorescence is measured (excitation: 490 nm, emission: 520 nm). In this assay, compound auto-fluorescence was negative.

topoisomerase IIα = target: T2, topoisomerase IIα (Homo sapiens, UniProt P11388); assay: topoisomerase II activity assay (kinetoplast DNA, Vaxron TA-001); format: biochemical; details: 10 μM compound
T2 construct: purchased Vaxron TA-001
T2 sequence (P11388 whole entry): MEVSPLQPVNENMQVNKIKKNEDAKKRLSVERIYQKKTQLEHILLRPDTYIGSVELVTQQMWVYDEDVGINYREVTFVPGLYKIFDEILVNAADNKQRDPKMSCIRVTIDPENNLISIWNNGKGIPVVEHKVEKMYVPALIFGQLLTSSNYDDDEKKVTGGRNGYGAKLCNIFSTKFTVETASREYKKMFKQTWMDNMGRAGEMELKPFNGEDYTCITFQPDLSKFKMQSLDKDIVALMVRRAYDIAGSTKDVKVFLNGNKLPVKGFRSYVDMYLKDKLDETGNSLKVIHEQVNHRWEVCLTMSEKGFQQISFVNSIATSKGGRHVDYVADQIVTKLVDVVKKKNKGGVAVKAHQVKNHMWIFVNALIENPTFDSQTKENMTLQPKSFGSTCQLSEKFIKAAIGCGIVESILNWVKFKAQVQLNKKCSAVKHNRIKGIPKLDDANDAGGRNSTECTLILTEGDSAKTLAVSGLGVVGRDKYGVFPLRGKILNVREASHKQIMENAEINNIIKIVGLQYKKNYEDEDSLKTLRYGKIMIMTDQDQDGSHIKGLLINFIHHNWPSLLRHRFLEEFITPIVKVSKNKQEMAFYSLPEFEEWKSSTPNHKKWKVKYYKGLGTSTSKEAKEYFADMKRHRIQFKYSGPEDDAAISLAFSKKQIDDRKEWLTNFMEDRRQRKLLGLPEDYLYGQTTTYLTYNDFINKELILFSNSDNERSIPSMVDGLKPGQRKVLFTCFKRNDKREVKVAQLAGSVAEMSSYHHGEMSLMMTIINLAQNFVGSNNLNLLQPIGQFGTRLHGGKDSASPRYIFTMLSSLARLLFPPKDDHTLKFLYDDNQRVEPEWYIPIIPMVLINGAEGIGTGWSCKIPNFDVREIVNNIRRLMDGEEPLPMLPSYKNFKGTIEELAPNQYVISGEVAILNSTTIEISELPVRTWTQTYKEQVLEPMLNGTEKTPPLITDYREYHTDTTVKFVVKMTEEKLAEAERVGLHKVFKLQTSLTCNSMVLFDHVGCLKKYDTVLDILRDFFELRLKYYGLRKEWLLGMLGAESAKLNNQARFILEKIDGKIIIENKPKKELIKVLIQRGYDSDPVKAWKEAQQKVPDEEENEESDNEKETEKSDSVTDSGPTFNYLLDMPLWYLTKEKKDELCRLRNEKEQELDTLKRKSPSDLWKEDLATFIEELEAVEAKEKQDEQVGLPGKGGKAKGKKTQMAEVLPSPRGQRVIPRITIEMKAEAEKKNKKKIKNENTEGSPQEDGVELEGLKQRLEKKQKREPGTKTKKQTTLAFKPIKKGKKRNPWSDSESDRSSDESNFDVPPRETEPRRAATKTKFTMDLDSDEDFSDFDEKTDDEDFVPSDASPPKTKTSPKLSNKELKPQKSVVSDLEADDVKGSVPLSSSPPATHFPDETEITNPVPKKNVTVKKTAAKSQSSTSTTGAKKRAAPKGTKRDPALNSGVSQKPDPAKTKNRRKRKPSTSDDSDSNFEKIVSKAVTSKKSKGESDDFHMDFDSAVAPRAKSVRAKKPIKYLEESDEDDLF
Protocol: as §3

U373 cells [6] = assay: colony formation assay by soft agar culture; format: cell-based; details: Homo sapiens, U373 MG, 360 h, 15 days
Protocol: The effect of compound on tumor cell tumorigenesis is tested on a colony formation assay.
The inhibition of colony formation assay by soft agar culture is performed as follows: U373 cells were poured on a 0.6% agar-DMEM-10% FBS layer, imbedded in 0.3% agar-DMEM-10% FBS, containing compounds (5 μM) or equivalent amount of DMSO. Number of colonies (more than 20 cells) was counted 15 days later in 10 fields/well. Experiment was done in duplicate at least twice.

U373 cells [7] = assay: in vivo inhibition of tumour growth, U373 xenograft in athymic nude mice
Protocol: All experimental procedures adhered to local ethical committee (Comité régional d'éthique pour l'Expérimentation animale CREEA, Rhône Alpes—protocol n°286). Female Harlan athymic nude mice (6-8 weeks) were inoculated s.c. into the right flank with 7.5×10^5 U373 cells. When tumors reaches±50 mm^3 (volume=length×width×height), animals were treated i.p. 3 times weekly (every two days) for 2 weeks, with Compound 1 (0.14 mg/100 μL/injection-4 mice) dissolved in PEG3350 22.5%, BSA 0.45% or equivalent DMSO (10% final-3 mice) dissolved in same buffer (control group). Body weight and tumor volume were determined twice weekly. The experiment was terminated when tumor volume was about 1000 mm^3. Results are presented as mean±standard error of the mean (SEM).

Cc1cnc(Cl)c2c1[nH]c1c3ccc(O)cc3ccc12 [Compound 1]
cell cycle effect (U373 cells [1]): cell cycle arrest with a substantial accumulation in G2/M-phase | apoptotic cells (HeLa cells [2]): concomitant increase of apoptotic cells | cell cycle effect (HeLa cells [2]): cell cycle arrest with a substantial accumulation in G2/M-phase | phosphorylated CK2 reporter isoform (CK2): disappeared in a dose-dependent manner | % remaining c-kit activity (10 μM) (c-Kit): 60.4% | inhibition of HeLa cell proliferation (HeLa cells [3]): strong inhibition of tumour cell proliferation even at low doses | % DNA intercalation (10 μM) [4]: 62.0% | reduction of U373 cell proliferation (U373 cells [5]): potent to reduce cell proliferation | % remaining CK2 activity (10 μM) (CK2α): 1.4% | pIC50 (CK2α): 5.82 | % remaining topoisomerase II activity (10 μM) (topoisomerase IIα): 106.8% | inhibition at 5 µM (U373 cells [6]): 50% | tumor size, times smaller than DMSO group (U373 cells [7]; 15 days post first compound injection, i.p. 0.14 mg/injection): 4.7 times | tolerability (U373 cells [7]; at the doses applied): well tolerated | variations in body weight (U373 cells [7]; i.p. 0.14 mg/injection, 3 times weekly for 2 weeks): not statistically significant | tumor incidence compared to DMSO (U373 cells [7]; i.p. 0.14 mg/injection, 3 times weekly for 2 weeks, all time points): significantly reduced

Cc1cnc(Cl)c2c1[nH]c1ccc3cc(O)ccc3c12 [Compound 2]
cell cycle effect (U373 cells [1]): cell cycle arrest with a substantial accumulation in G2/M-phase | apoptotic cells (HeLa cells [2]): concomitant increase of apoptotic cells | cell cycle effect (HeLa cells [2]): cell cycle arrest with a substantial accumulation in G2/M-phase | phosphorylated CK2 reporter isoform (CK2): disappeared in a dose-dependent manner | % remaining c-kit activity (10 μM) (c-Kit): 16.9% | inhibition of HeLa cell proliferation (HeLa cells [3]): strong inhibition of tumour cell proliferation even at low doses | % DNA intercalation (10 μM) [4]: 66.4% | reduction of U373 cell proliferation (U373 cells [5]): potent to reduce cell proliferation | % remaining CK2 activity (10 μM) (CK2α): 3.5% | pIC50 (CK2α): 6.17 | % remaining topoisomerase II activity (10 μM) (topoisomerase IIα): 77%
